Assay results: US8349791B2, “Polypeptides that bind membrane proteins” (The Trustees of the University of Pennsylvania, priority 2006, dated 2013)
Peptide text beside a SMILES is read from it.

Key:
[1] = Trp fluorescence, phospholipid bilayer insertion; type: physicochemical; conditions: for insertion into phospholipid vesicles: FIG. 9
Procedure: Fluorescence intensity was measured on an ATF 105 spectrofluorometer (Aviv Biomedical, Inc., Lakewood, N.J.) using a 0.3 cm path length cuvette. Small unilamellar vesicles composed of 1-Palmitoyl-2-Oleoyl-sn-Glycero-3-Phosphocholine and 1-Palmitoyl-2-Oleoyl-sn-Glycero-3-[Phospho-rac-(1-glycerol)] (7:3) were prepared using standard ethanol dilution (Batzri S & Korn E D. Biochim. Biophys. Acta. 298, 1015-1019 (1973)): phospholipids were initially dissolved in 15 μl ethanol and then diluted to 1 ml with buffer (20 mM HEPES, pH=7.5). Samples with 1 μM anti-αIIb in the presence of 0, 100, and 500 μM total phospholipids were prepared. Excitation of 280 nm was used for emission scans ranging from 410 nm to 300 nm. Excitation and emission slit widths are 2.5 nm and 1.5 nm, respectively. An average time of 1.0 second was used.
See FIG. 9, which provides the emission scans of anti-αIIb (1 μM) and of anti-αV in the presence of three different concentrations of phospholipids. Provided are emission scans of 1 μM anti-αIIb (FIG. 9a) and 1 μM anti-αV (FIG. 9b) in presence of 0 μM (*), 100 μM (†), and 500 μM (^) of phospholipids (POPC:POPG=7:3, excitation wavelength=280 nm). The emission maximum of the Trp residue in anti-αIIb occurs at 353 nm, consistent with a fully-exposed Trp residue in the absence of membranes. In the presence of phospholipids vesicles, the emission maximum blue-shifts by 31 nm, indicating a transfer to a membrane-like environment.

[2] = biological target: T1, αIIbβ3 (Homo sapiens, UniProt P08514); assay: Force spectroscopy (laser tweezers), platelets and fibrinogen-coated beads; type: cell-based
T1 construct: trapped from a suspension of gel filtered human platelets or CHO cells; endogenous in cells; host or cells: gel-filtered human platelets
T1 sequence (P08514 891-1039 limits assumed): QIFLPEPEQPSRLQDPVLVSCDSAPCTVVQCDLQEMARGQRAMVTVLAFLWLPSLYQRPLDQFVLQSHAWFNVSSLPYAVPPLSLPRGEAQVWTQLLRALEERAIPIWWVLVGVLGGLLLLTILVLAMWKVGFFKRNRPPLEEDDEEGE
T1 sequence (P08514 32-887 partner limits assumed): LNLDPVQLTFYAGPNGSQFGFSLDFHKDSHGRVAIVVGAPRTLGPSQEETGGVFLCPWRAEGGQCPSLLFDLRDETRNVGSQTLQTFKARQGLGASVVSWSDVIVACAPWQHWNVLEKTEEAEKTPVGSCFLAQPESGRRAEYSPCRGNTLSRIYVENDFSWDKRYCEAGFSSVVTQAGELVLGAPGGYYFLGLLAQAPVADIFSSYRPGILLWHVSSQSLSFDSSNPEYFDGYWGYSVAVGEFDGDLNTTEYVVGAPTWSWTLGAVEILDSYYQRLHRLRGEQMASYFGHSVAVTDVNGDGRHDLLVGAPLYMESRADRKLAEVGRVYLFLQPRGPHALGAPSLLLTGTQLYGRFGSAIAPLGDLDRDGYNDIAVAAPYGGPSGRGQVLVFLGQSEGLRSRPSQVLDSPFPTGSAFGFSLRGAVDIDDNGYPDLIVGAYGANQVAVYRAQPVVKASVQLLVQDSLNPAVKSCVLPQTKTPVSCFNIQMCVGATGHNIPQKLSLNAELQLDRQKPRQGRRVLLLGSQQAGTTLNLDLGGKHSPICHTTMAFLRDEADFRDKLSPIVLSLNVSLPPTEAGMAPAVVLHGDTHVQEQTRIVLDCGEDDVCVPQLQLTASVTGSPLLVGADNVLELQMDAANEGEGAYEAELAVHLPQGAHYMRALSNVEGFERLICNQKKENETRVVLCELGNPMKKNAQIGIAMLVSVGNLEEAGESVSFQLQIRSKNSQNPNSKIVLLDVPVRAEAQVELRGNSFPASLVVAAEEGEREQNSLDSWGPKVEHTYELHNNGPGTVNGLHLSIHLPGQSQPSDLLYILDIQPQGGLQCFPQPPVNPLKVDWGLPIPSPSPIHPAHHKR
T1 sequence (P05106 27-788 partner): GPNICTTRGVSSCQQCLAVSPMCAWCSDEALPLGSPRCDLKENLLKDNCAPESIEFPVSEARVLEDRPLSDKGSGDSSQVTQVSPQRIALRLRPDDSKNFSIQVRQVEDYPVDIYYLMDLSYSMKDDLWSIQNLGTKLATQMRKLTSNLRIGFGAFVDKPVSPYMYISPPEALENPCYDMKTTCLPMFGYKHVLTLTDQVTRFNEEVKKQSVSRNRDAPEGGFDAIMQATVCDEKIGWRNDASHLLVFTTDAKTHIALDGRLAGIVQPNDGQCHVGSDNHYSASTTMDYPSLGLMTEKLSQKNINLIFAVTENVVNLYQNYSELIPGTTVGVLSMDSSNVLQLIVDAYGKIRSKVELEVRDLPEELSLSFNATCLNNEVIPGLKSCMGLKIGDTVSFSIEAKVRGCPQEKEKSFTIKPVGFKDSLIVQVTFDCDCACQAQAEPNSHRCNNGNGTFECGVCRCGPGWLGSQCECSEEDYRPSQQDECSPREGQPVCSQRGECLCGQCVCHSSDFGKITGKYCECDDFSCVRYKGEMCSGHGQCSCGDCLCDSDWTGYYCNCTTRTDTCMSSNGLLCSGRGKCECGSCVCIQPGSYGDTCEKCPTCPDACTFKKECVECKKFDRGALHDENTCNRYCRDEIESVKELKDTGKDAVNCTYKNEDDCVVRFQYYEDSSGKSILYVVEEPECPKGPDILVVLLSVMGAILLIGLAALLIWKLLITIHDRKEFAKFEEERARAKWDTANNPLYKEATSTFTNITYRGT
From the text: (§1) Litvinov R I et al. Proc. Natl. Acad. Sci. USA. 99, 7426-31 (2002). Recombinant human OPN, prepared as previously described (Bennett J S et al. J. Biol. Chem. 272, 8137-40 (1997)) or purified human fibrinogen was covalently bound to 0.93 μm carboxylate-modified latex beads. Individual cells, trapped from a suspension of gel filtered human platelets or CHO cells, were manually attached to 5 μm diameter silica pedestals coated with polylysine. An OPN- or fibrinogen-coated bead, trapped by the laser light, was then brought into proximity of an immobilized cell, oscillated at 50 Hz, and then brought into repeated intermittent contact with the cell by micromanipulation. Data collection was initiated at the first contact between the bead and the cell. Rupture forces following repeated contacts were collected for periods of several seconds to one minute. Individual forces measured during each contact-detachment cycle were collected into 10 pN-wide bins. The number of events in each bin was then plotted against the average force for that bin after normalizing for the total number of interaction cycles. Thus, the percentage of events in a particular force range (bin) represents the probability of rupture events at that tension. Optical artifacts observed with or without trapped latex beads produce signals that appeared as forces below 10 pN. Therefore, rupture forces in this range were not considered when the data were analyzed. The polypeptide was added from a DMSO solution such that the final concentration of DMSO was no greater than 0.5%. All controls also had 0.5% DMSO in the buffer.
Beads coated with fibrinogen were brought into intermittent contact with immobilized platelets in the presence or absence of anti-αIIb and the rupture force was measured. Litvinov R I et al. J. Biol. Chem. 278, 51285-51290 (2003). In the absence of anti-αIIb, the binding probability of platelets and fibrinogen-coated beads decreased exponentially (FIG. 5a) with increasing force, consistent with a non-specific interaction of the beads with the platelet surface. Litvinov R I (2003). […]

[3] = biological target: T2, αVβ3 (Homo sapiens, UniProt P06756); assay: Force spectroscopy (laser tweezers), platelets and osteopontin-coated beads; type: cell-based
T2 construct: Platelets express a second integrin with a β3 subunit, αVβ3; endogenous in cells; host or cells: gel-filtered human platelets
T2 sequence (P06756 891-1048 limits assumed): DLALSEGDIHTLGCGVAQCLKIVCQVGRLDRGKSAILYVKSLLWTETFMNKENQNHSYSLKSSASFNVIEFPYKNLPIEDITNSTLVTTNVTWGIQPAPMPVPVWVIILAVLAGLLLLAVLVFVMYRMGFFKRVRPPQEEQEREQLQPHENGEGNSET
T2 sequence (P06756 31-889 partner limits assumed): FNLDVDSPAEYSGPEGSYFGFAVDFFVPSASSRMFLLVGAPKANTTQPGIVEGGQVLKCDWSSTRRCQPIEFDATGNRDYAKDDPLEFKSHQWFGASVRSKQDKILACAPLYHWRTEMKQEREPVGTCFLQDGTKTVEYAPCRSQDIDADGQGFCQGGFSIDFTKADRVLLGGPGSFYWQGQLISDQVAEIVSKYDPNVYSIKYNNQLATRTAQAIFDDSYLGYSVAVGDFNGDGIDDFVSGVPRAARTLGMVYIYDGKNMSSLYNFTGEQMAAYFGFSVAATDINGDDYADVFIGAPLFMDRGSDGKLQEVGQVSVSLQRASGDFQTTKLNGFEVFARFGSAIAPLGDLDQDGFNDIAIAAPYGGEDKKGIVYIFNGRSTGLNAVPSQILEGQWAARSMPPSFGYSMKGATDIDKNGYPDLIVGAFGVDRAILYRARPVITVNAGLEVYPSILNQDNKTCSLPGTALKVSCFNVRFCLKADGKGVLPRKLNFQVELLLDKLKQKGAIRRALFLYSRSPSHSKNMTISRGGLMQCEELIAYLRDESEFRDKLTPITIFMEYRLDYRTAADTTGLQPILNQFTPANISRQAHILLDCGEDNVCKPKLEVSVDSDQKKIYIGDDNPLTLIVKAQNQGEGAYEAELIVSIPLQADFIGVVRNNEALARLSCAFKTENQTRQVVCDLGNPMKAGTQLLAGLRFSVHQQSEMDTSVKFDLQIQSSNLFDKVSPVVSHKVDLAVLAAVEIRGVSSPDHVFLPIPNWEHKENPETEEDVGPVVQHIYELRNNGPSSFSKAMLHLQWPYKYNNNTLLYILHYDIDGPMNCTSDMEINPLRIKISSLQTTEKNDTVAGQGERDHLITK
T2 sequence (P05106 27-788 partner): as the sequence (P05106 27-788 partner) above
From the text: as §1
Platelets express a second integrin with a β3 subunit, αVβ3, which can bind the matrix protein osteopontin when platelets are stimulated by Mn^2+ or ADP. Bennett J S et al. J. Biol. Chem. 272, 8137-8140 (1997). To test the ability of anti-αIIb to discriminate between αIIbβ3 and αVβ3, the rupture force between platelets and osteopontin-coated beads in the presence and absence of anti-αIIb was measured.

[4] = TOXCAT homodimerization in bacterial membranes; type: cell-based, Escherichia coli; conditions: ToxR fusion in E. coli
Procedure: Both the affinity and specificity of the membrane protein-binding peptides for their targets when coexpressed in bacterial membranes were assessed with a DN-“TOXCAT” assay (FIGS. 3a-3c). In TOXCAT, a TM sequence of interest is fused to a ToxR protein (TM-ToxR) that binds to the ctx promoter as a dimer, which induces expression of chloramphenicol acetyltransferase (CAT) (W. P. Russ, D. M. Engelman, Proc. Natl. Acad. Sci. U.S.A. 96, 863 (1999); D. Langosch, B. Brosig, H. Kolmar, H. J. Fritz, J. Mol. Biol. 263, 525 (1996)). In the DN assay, the TM1-ToxR fusion protein is coexpressed with a second fusion protein (TM2-ToxR*) containing a nonfunctional mutant of the ToxR domain. TM-driven dimerization leads to a ToxR-ToxR* dimer that is unable to bind the ctx promoter or to induce CAT synthesis (FIG. 3a). The resulting decrease in CAT activity can be used to monitor the formation of a heterodimeric TM complex. In principle, this assay could be accomplished by adding an exogenous synthetic peptide (D. Gerber, N. Sal-Man, Y. Shai, J. Mol. Biol. 339, 243 (2004)); however, it is difficult to assure that different peptides will be similarly inserted into the Escherichia coli inner membrane. […]

| Compound | insertion into phospholipid vesicles [1] | rupture force / activation, platelets and fibrinogen-coated beads [2] | peak of rupture force between platelets and osteopontin-coated beads [3] [pN] | rupture force peak in the presence of αvβ3 antagonist XJ735 [3] | homodimer formation in bacterial membranes (CAT signal, words) [4] | blue-shift of Trp emission maximum in the presence of phospholipid vesicles ([1]; 1 μM peptide, POPC:POPG 7:3 vesicles) [nm] | emission maximum of the Trp residue in the absence of membranes ([1]; 1 μM peptide, excitation 280 nm, 0 μM phospholipids) [nm] | peak of rupture force between platelets and fibrinogen-coated beads ([2]; 0.5 μM polypeptide) [pN] | rupture force peak after pre-incubation with αIIbβ3 antibody abciximab ([2]; 0.5 μM polypeptide) | rupture force, platelets and osteopontin-coated beads ([3]; 0.5 μM polypeptide) |
| --- | --- | --- | --- | --- | --- | --- | --- | --- | --- | --- |
| AYVFILLSFILGTLLGFLVMFWA [anti-αV] | successfully insert | no peak of specific rupture force was observed | 40 | not present | affinity similar to that of the TM domain of glycophorin A (GpA) |  |  |  |  |  |
| CC[C@H](C)[C@H](NC(=O)[C@H](Cc1ccccc1)NC(=O)[C@H](Cc1ccccc1)NC(=O)[C@@H]1CCCN1C(=O)[C@H](CC(C)C)NC(=O)[C@H](CC(C)C)NC(=O)[C@H](CCSC)NC(=O)[C@@H](NC(=O)[C@H](Cc1ccc(O)cc1)NC(=O)[C@H](C)NC(=O)[C@H](CCCCN)NC(=O)[C@@H](N)CCCCN)C(C)C)C(=O)NCC(=O)N[C@@H](CC(C)C)C(=O)N[C@@H](CC(C)C)C(=O)N[C@@H](CC(C)C)C(=O)NCC(=O)N[C@@H](CC(C)C)C(=O)N[C@H](C(=O)N[C@@H](Cc1ccccc1)C(=O)NCC(=O)NCC(=O)N[C@@H](C)C(=O)N[C@@H](Cc1ccccc1)C(=O)N[C@@H](Cc1c[nH]c2ccccc12)C(=O)NCC(=O)N1CCC[C@H]1C(=O)N[C@@H](C)C(=O)N[C@@H](CCCNC(=N)N)C(=O)N[C@@H](Cc1c[nH]cn1)C(=O)N[C@@H](CC(C)C)C(=O)N[C@@H](CCCCN)C(=O)N[C@@H](CCCCN)C(N)=O)[C@@H](C)CC [anti-αIIb] (H-KKAYVMLLPFFIGLLLGLIFGGAFWGPARHLKK-NH2; N-terminus assumed) | successfully insert |  |  |  | affinity similar to that of the TM domain of glycophorin A (GpA) | 31 | 353 | ~70 | eliminated the rupture force peak | No peak of rupture force was observed |
